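Method: 48-hour compound exposure of cells in 96-well plates, five concentrations, linear interpolation of endpoints. GI50: concentration for 50% inhibition of growth.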 Activity calls are given as the source filed them. No stated cut-off is given here; in the data, active = GI50 up to about 1.1 µM and inactive = higher.
Key:
Test in all cases: NCI-60 cell line screen, 48 h
[1] = test system: KM-20L2
[2] = test system: DMS-114
[3] = test system: SNB-78
[4] = test system: RXF 631
[5] = test system: M19-MEL
[6] = test system: XF498
[7] = test system: DLD-1
[8] = test system: HOP-18
[9] = test system: BT-549

SMILES	GI50 [1]	GI50 [2]	GI50 [5]	GI50 [7]	GI50 [9]	further results
C/C(CC(=O)Nc1ccc([N+](=O)[O-])cc1)=N/N=C(N)N	> 100 µM (inactive)	> 100 µM (inactive)	> 100 µM (inactive)	> 100 µM (inactive)	–	GI50 [3]: > 100 µM (inactive); GI50 [4]: > 100 µM (inactive); GI50 [6]: > 100 µM (inactive)
CC(C)(CN1C(=O)C(Cl)=C(Cl)C1=O)CN1C(=O)C(Cl)=C(Cl)C1=O	16.6 µM (inactive)	9.75 µM (inactive)	7.66 µM (inactive)	3.38 µM (inactive)	–	GI50 [3]: 19 µM (inactive); GI50 [8]: 19.4 µM (inactive)
O=C(N/N=C/c1ccc(Cl)cc1)c1c(Cl)c(Cl)c(Cl)c(Cl)c1-c1nc2ccccc2[nH]1	–	–	–	–	> 100 µM (inactive)	–
CC(=O)NC1C(OCc2ccccc2)OC(CO)C(O)C1OCC(=O)N1CCCC1C(=O)N[C@@H](CCC(=O)NCCCCNc1c2ccccc2nc2cccc([N+](=O)[O-])c12)C(N)=O (stereo not given in full)	–	–	–	–	17.9 µM (inactive)	–
N=c1c2sc3nc4ccccc4n3c2ncn1Cc1ccccc1	–	–	–	–	> 100 µM (inactive)	–
C#CCn1c(=O)c(C)cn(/C(=C\C(=O)OCC)C(=O)OCC)c1=O	–	–	–	–	9.71 µM (inactive)	–
COC1=CC(=O)c2c(c(-c3csc(C)n3)cn2C)C1=O	–	–	–	–	22.8 µM (inactive)	–
Clc1ccc(NCc2nnc(COc3ccc(OCc4nnc(CNc5ccc(Cl)cc5)o4)c(Cl)c3)o2)cc1	–	–	–	–	22.3 µM (inactive)	–
CSCSSC	–	–	–	–	> 100 µM (inactive)	–
CCN1C(=O)C(N=[N+]=[N-])(c2ccccc2)C(=O)c2ccccc21 (stereo not given)	> 100 µM (inactive)	41.7 µM (inactive)	43.1 µM (inactive)	> 100 µM (inactive)	–	GI50 [3]: 98.2 µM (inactive); GI50 [8]: > 100 µM (inactive); GI50 [6]: 0.946 µM (active)
Cc1ccc(-c2cc(-c3ccc(Cl)cc3)nc(/N=C3\C(=O)N(CN4CCCCC4)c4ccc(Cl)cc43)n2)cc1	–	–	–	–	22.4 µM (inactive)	–
CCCCc1c(O)nc(Nc2nc3ccccc3[nH]2)[nH]c1=O	–	–	–	–	> 100 µM (inactive)	–
COc1ccc(C(=O)C(Br)C(Br)C(=O)O)cc1 (stereo not given)	–	–	–	–	26.5 µM (inactive)	–
O=[N+]([O-])c1ccc(C(O)/C(=N/O)c2nc3ccc(Cl)cc3nc2O)cc1 (stereo not given)	> 100 µM (inactive)	> 100 µM (inactive)	> 100 µM (inactive)	> 100 µM (inactive)	–	GI50 [6]: > 100 µM (inactive)
Cn1c2ccccc2c2c3c(c4c5ccccc5n(C)c4c21)C(=O)N(Cc1ccccc1)C3=O	–	–	–	–	> 100 µM (inactive)	–
ClCCN(CCCl)c1ccc(/C=N/Nc2ccnc3ccccc23)cc1	–	–	–	–	2 µM (inactive)	–
COc1ccc2c3c([nH]c2c1CC=C(C)C)C(=O)C=C(C)C3=O	> 25 µM (inactive)	18.3 µM (inactive)	11.6 µM (inactive)	> 25 µM (inactive)	–	GI50 [8]: 12.1 µM (inactive); GI50 [6]: > 25 µM (inactive)
CCN1CCC(O)(/C=C/c2ccc(Cl)c(Cl)c2)C(C(=O)/C=C/c2ccc(Cl)c(Cl)c2)C1 (stereo not given)	–	–	–	–	0.733 µM (active)	–
C=CCCC1CCCNC1=S (stereo not given)	–	–	–	–	> 100 µM (inactive)	–
Cc1cc(C)n(C2=NS(=O)(=O)c3ccccc3N2C)n1	–	–	–	–	> 100 µM (inactive)	–
NC12CC3CC(C1)CC(C(=O)O)(C3)C2	> 100 µM (inactive)	> 100 µM (inactive)	> 100 µM (inactive)	> 100 µM (inactive)	–	GI50 [3]: > 100 µM (inactive); GI50 [8]: > 100 µM (inactive); GI50 [6]: > 100 µM (inactive)
O=C1CC(c2c[nH]c3ccccc23)C(=O)N1c1ccccc1 (stereo not given)	> 100 µM (inactive)	–	> 100 µM (inactive)	> 100 µM (inactive)	–	GI50 [3]: > 100 µM (inactive); GI50 [6]: > 100 µM (inactive)
Cc1cc(NC(=O)NC(=O)c2ccccc2NC(=O)CN(C)C)ccc1Oc1ncc(Br)cn1	4.56 µM (inactive)	3.07 µM (inactive)	36.8 µM (inactive)	8.07 µM (inactive)	> 100 µM (inactive)	GI50 [3]: 19.2 µM (inactive); GI50 [6]: 19.7 µM (inactive)
COc1ccc(CN2C(=O)C(Cc3cc(OC)c(OC)c(C)c3OC)N(C(=O)OC(C)C)C(=O)/C2=C/c2cc(OC)c(OC)c(C)c2OC)cc1 (stereo not given)	> 100 µM (inactive)	24.9 µM (inactive)	> 100 µM (inactive)	> 100 µM (inactive)	–	GI50 [4]: > 100 µM (inactive); GI50 [8]: 16.3 µM (inactive)
O=c1c(Cl)c(Cl)cnn1CCCl	13 µM (inactive)	4.3 µM (inactive)	2.67 µM (inactive)	1.47 µM (inactive)	3.47 µM (inactive)	GI50 [3]: 11.8 µM (inactive); GI50 [6]: 3 µM (inactive)
Cc1nc2c(c(N3CCN(C)CC3)n1)Cc1ccccc1-2	–	–	–	–	24.3 µM (inactive)	–
CC(=O)OCCn1c(Cc2ccc([N+](=O)[O-])cc2)nn(C(C)=O)c1=O	–	–	–	–	> 100 µM (inactive)	–
